# Where a chain is given by its changes, count along the chain named.
# What was measured:
# Experiment in all cases: Whole-cell patch-clamp, direct activation in the absence of glycine
# Assay type in all cases: cell-based
# Set-up in all cases: expressed in transfected cells; host or cells: HEK 293 (transient, electroporation; pcDNA1amp vector)
# [1] = biological target: T1, human α1R271L-GlyR expressed in HEK 293 cells (Homo sapiens, UniProt P23415, R299L); conditions: R271L, 0.01-1000 μM
# T1 sequence (P23415 29-457 R299L): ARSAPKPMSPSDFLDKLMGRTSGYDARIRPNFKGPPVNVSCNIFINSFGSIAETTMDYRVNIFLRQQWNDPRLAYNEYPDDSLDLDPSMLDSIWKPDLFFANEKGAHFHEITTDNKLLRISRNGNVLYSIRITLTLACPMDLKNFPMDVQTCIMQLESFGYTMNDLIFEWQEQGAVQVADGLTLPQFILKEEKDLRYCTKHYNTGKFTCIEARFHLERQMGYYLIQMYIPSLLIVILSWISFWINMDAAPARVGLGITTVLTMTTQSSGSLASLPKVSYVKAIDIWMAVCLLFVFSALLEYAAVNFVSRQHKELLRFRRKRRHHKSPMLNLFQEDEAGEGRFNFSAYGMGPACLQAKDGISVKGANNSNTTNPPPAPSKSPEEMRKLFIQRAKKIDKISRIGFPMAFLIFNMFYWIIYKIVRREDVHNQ
# Procedure: (§1) Drug-containing vials were vigorously vortexed for 30min.
# (§2) A new cell was used for each protocol and at least four different experiments were performed for each condition. The concentration of the diluent EtOH corresponding to the highest drug concentration used was 17150 μM.
# (§3) Currents were filtered at 2 kHz.
# [2] = biological target: T2, human α1S267I-GlyR expressed in HEK 293 cells (Homo sapiens, UniProt P23415, S295I); conditions: S267I, 0.01-1000 μM
# T2 sequence (P23415 29-457 S295I): T1 sequence (P23415 29-457 R299L) with S267I, L271R
# Procedure: as §1, §2, §3
# [3] = biological target: T3, human α1R271K-GlyR expressed in HEK 293 cells (Homo sapiens, UniProt P23415, R299K); conditions: R271K
# T3 sequence (P23415 29-457 R299K): T1 sequence (P23415 29-457 R299L) with L271K
# Procedure: as §1, §2, §3
# [4] = biological target: T4, human α1R271Q-GlyR expressed in HEK 293 cells (Homo sapiens, UniProt P23415, R299Q); conditions: R271Q, 0.01-1000 μM
# T4 sequence (P23415 29-457 R299Q): T1 sequence (P23415 29-457 R299L) with L271Q
# Procedure: as §1, §2, §3
substance,measurement,setting,value
"4-chloro-2,6-dimethylphenol [4-chloropropofol]",direct activation,[1],completely insensitive
same,direct activation,[2],completely insensitive
same,direct activation nH,[3],0.41 ± 0.15
same,mean maximal activation (direct),[3],77.2 ± 4.2%
same,EC50,"[3]; 0.01-1000 μM, n = 5",16.4 ± 22.3 µM
same,direct activation,[4],only a marginal direct activation
